The values below come from US20100317863A1, “Glucocorticoid Mimetics, Methods of Making Them, Pharmaceutical Compositions and Uses Thereof” (BOEHRINGER INGELHEIM INTERNATIONAL GMBH, priority 2007, published 2010).

For this test, the target named is T1, human glucocorticoid receptor (GR) complex (Homo sapiens, UniProt P04150).
T1 construct: made in house; host or cells: insect expression system (baculovirus lysate)
T1 sequence (P04150 1-777): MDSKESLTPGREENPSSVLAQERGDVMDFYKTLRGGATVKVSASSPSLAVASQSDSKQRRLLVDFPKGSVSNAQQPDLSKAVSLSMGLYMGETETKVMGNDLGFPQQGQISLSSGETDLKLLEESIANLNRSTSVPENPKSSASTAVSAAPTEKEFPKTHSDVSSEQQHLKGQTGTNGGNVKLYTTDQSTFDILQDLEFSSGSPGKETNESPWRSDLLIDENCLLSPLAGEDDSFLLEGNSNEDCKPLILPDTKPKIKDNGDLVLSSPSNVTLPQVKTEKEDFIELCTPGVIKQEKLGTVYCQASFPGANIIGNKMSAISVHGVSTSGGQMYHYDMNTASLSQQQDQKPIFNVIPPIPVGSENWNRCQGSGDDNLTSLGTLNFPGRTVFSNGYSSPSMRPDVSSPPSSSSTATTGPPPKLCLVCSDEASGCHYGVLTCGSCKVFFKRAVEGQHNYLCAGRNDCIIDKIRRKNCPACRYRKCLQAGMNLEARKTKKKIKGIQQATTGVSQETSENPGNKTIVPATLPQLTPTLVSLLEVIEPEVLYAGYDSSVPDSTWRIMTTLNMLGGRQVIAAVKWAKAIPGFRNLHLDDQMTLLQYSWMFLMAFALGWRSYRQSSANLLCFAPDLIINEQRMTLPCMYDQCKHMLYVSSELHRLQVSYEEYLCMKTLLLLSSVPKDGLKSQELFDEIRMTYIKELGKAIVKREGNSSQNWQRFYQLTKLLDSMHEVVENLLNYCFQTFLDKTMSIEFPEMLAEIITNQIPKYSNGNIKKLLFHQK
The experiment in a line: Glucocorticoid Receptor Competitive Binding Assay (fluorescence polarization). Conditions: competition with TAMRA-labeled dexamethasone; potent activity. The procedure:
Compounds of the invention were evaluated for binding to the steroid receptor by a fluorescence polarization competitive binding assay. Detailed descriptions for preparation of recombinant glucocorticoid receptor (GR) complex used in the assay is described in U.S. Patent Application Publication No. US 2003/0017503, filed May 20, 2002, and incorporated herein by reference in its entirety. Preparation of the tetramethylrhodamine (TAMRA)-labeled dexamethasone probe was accomplished using a standard literature procedure (M. Pons et al., J. Steroid Biochem., 1985, 22, pp. 267-273).
This assay uses fluorescence polarization (FP) to quantitate the ability of test compounds to compete with tetramethylrhodamine (TAMRA)-labeled dexamethasone for binding to a human glucocorticoid receptor (GR) complex prepared from an insect expression system. The assay buffer was: 10 mM TES, 50 mM KCl, 20 mM Na2MoO4.2H2O, 1.5 mM EDTA, 0.04% w/v CHAPS, 10% v/v glycerol, 1 mM dithiothreitol, pH 7.4. Test compounds were dissolved to 1 mM in neat DMSO and then further diluted to 10× assay concentration in assay buffer supplemented with 10% v/v DMSO. Test compounds were serially diluted at 10× assay concentrations in 10% DMSO-containing buffer in 96-well polypropylene plates. Binding reaction mixtures were prepared in 96-well black Dynex microtiter plates by sequential addition of the following assay components to each well: 15 μL of 10× test compound solution, 85 μL of GR-containing baculovirus lysate diluted 1:170 in assay buffer, and 50 μL of 15 nM TAMRA-labeled dexamethasone. Positive controls were reaction mixtures containing no test compound; negative controls (blanks) were reaction mixtures containing 0.7 μM to 2 μM dexamethasone. The binding reactions were incubated for 1 hour at room temperature and then read for fluorescence polarization in the LJL Analyst set to 550 nm excitation and 580 nm emission, with the Rhodamine 561 dichroic mirror installed. IC50 values were determined by iterative non-linear curve fitting of the FP signal data to a 4-parameter logistic equation.
Take `CC[C@@H](Cn1cc(C)c2ccccc21)NS(=O)(=O)c1c(N)cc(Cl)cc1Cl` [2-Amino-4,6-dichloro-N—[(S)-1-(3-methylindol-1-ylmethyl)propyl]benzenesulfonamide]: the IC50 (as a rule, the midpoint of a concentration-inhibition curve) is at most 100 nM. `CC[C@@H](Cn1cc(C#N)c2cc(F)ccc21)NS(=O)(=O)c1c(C)cc(C)cc1C` [N—[(S)-1-(3-Cyano-5-fluoroindol-1-ylmethyl)propyl]-2,4,6-trimethylbenzenesulfonamide] displayed an IC50 of at most 100 nM. Consider `CC[C@@H](Cn1cc(C)c2ccccc21)NS(=O)(=O)c1c(C)cc(C)cc1Br` [2-Bromo-4,6-dimethyl-N—[(S)-1-(3-methylindol-1-ylmethyl)propyl]benzenesulfonamide], for which the IC50 is at most 100 nM. The compound `CC[C@@H](Cn1cc(C#N)c2cc(F)ccc21)NS(=O)(=O)c1c(Cl)cc(Br)cc1Cl` [4-Bromo-2,6-dichloro-N—[(S)-1-(3-cyano-5-fluoroindol-1-ylmethyl)propyl]benzenesulfonamide] displayed an IC50 of at most 100 nM. For the compound `Cc1cc(C)c(S(=O)(=O)N[C@@H](C)Cn2cc(CC#N)c3cc(F)ccc32)c(N)c1` [2-Amino-N—[(S)-2-(3-cyanomethyl-5-fluoroindol-1-yl)-1-methylethyl]-4,6-dimethylbenzenesulfonamide], the IC50 was at most 100 nM. The compound `Cc1cc(C)c(S(=O)(=O)N[C@@H](C)Cn2cc(C)c3cccc(F)c32)c(N)c1` [2-Amino-N—[(S)-2-(7-fluoro-3-methylindol-1-yl)-1-methylethyl]-4,6-dimethylbenzenesulfonamide] yielded an IC50 of at most 100 nM. As to `Cc1cc(C)c(S(=O)(=O)N(C)[C@@H](C)Cn2cc(C#N)c3cccc(F)c32)c(N)c1` [2-Amino-N—[(S)-2-(3-cyano-7-fluoroindol-1-yl)-1-methylethyl]-4,6,N-trimethylbenzenesulfonamide], the IC50 is at most 100 nM. `CC[C@@H](CN1CCCc2cc(Br)ccc21)NS(=O)(=O)c1c(C)cc(C)cc1C` [N—[(S)-1-(6-Bromo-3,4-dihydro-2H-quinolin-1-ylmethyl)propyl]-2,4,6-trimethylbenzenesulfonamide] came in with a 50% inhibitory concentration (IC50) of at most 100 nM. With `CC[C@@H](Cc1cccc2ccn(C)c12)NS(=O)(=O)c1c(C)cc(C)cc1C` [2,4,6-Trimethyl-N—[(S)-1-(1-methyl-1H-indol-7-ylmethyl)propyl]benzenesulfonamide] the figure was at most 100 nM; with `CC[C@@H](Cn1cc(C#N)c2cc(F)ccc21)NS(=O)(=O)c1c(Cl)cc(-c2ccc(N(C)C)cc2)cc1Cl` [3,5-Dichloro-4′-dimethylaminobiphenyl-4-sulfonic acid [(S)-1-(3-cyano-5-fluoroindol-1-ylmethyl)propyl]amide], at most 100 nM. In the case of `CC[C@@H](Cn1cc(CC#N)c2ccccc21)NS(=O)(=O)c1c(C)cc(C)cc1C` [N—[(S)-1-(3-Cyanomethylindol-1-ylmethyl)propyl]-2,4,6-trimethylbenzenesulfonamide], the IC50 was at most 100 nM. For the compound `CC[C@@H](Cn1cc(C)c2ccccc21)NS(=O)(=O)c1c(C)cc(C)cc1[N+](=O)[O-]` [2,4-Dimethyl-N—[(S)-1-(3-methylindol-1-ylmethyl)propyl]-6-nitrobenzenesulfonamide], the IC50 is at most 100 nM. The compound `CC(C)C(Cn1ccc2ccccc21)NS(=O)(=O)c1c(N)cc(Cl)cc1Cl` (stereo not shown) [2-Amino-4,6-dichloro-N-(1-indol-1-ylmethyl-2-methylpropyl)benzenesulfonamide] returned an IC50 of at most 100 nM. Compound `CC[C@@H](Cn1cc(C)c2cccc(F)c21)NS(=O)(=O)c1c(C)cc(C)cc1N` [2-Amino-N—[(S)-1-(7-fluoro-3-methylindol-1-ylmethyl)propyl]-4,6-dimethylbenzenesulfonamide] displayed an IC50 of at most 100 nM.

`Cc1cc(C)c(S(=O)(=O)N[C@@H](C)Cn2cc(C)c3ccccc32)c([N+](=O)[O-])c1` [2,4-Dimethyl-N—[(S)-1-methyl-2-(3-methylindol-1-yl)-ethyl]-6-nitrobenzenesulfonamide] yielded a concentration for half-maximal inhibition (IC50) of at most 100 nM. With `Cc1cc(C)c(S(=O)(=O)N[C@@H](C)Cn2cc(CC#N)c3ccccc32)c(N)c1` [2-Amino-N—[(S)-2-(3-cyanomethylindol-1-yl)-1-methylethyl]-4,6-dimethylbenzenesulfonamide], the IC50 is at most 100 nM.

For the compound `CCC(Cn1cc(C)c2ccccc21)NS(=O)(=O)c1c(N)cc(Cl)cc1Cl` (stereo not shown) [2-Amino-4,6-dichloro-N-[1-(3-methylindol-1-ylmethyl)propyl]benzenesulfonamide], the IC50 was at most 100 nM. For the compound `CC[C@@H](Cn1ccc2cc(C(=O)OC)ccc21)NS(=O)(=O)c1c(C)cc(C)cc1C` [1-[(S)-2-(2,4,6-Trimethylbenzenesulfonylamino)butyl]-1H-indole-5-carboxylic acid methyl ester], the IC50 was at most 100 nM.

`Cc1cc(C)c(S(=O)(=O)NC(Cn2cc(C)c3ccccc32)C(C)C)c([N+](=O)[O-])c1` (stereo not shown) [2,4-Dimethyl-N-[2-methyl-1-(3-methylindol-1-ylmethyl)propyl]-6-nitrobenzenesulfonamide] yielded an IC50 of at most 100 nM. `CCC(Cn1cc(C)c2ccccc21)NS(=O)(=O)c1c(C)cc(C)cc1C` (stereo not shown) [2,4,6-Trimethyl-N-[1-(3-methylindol-1-ylmethyl)propyl]benzenesulfonamide] came in with an IC50 of at most 100 nM. Take `CC[C@@H](Cn1cc(-c2ccccc2)c2ccccc21)NS(=O)(=O)c1c(N)cc(Cl)cc1Cl` [2-Amino-4,6-dichloro-N—[(S)-1-(3-phenylindol-1-ylmethyl)propyl]benzenesulfonamide]: the IC50 was at most 100 nM. As to `CC(C)[C@@H](Cn1cc(C#N)c2ccccc21)NS(=O)(=O)c1c(N)cc(Cl)cc1Cl` [2-Amino-4,6-dichloro-N—[(S)-1-(3-cyanoindol-1-ylmethyl)-2-methylpropyl]benzenesulfonamide], the IC50 was at most 100 nM. On to `CC[C@@H](Cc1ccc2ccn(C)c2c1)NS(=O)(=O)c1c(C)cc(C)cc1C` [2,4,6-Trimethyl-N—[(S)-1-(1-methyl-1H-indol-6-ylmethyl)propyl]benzenesulfonamide], for which the IC50 is at most 100 nM. `CC[C@@H](Cn1c(C)c(C#N)c2ccccc21)NS(=O)(=O)c1c(C)cc(C)cc1C` [N—[(S)-1-(3-Cyano-2-methylindol-1-ylmethyl)propyl]-2,4,6-trimethylbenzenesulfonamide] registered an IC50 of at most 100 nM. For the compound `Cc1cc(C)c(S(=O)(=O)NC(Cn2ccc3ccccc32)C(C)(C)C)c(C)c1` (stereo not shown) [N-(1-Indol-1-ylmethyl-2,2-dimethylpropyl)-2,4,6-trimethylbenzenesulfonamide], the 50% inhibitory concentration (IC50) is at most 100 nM. `CC[C@@H](Cn1cc(CC#N)c2ccccc21)NS(=O)(=O)c1c(C)cc(C)cc1N` [2-Amino-N—[(S)-1-(3-cyanomethylindol-1-ylmethyl)propyl]-4,6-dimethylbenzenesulfonamide] came in with an IC50 of at most 100 nM.

Turning to `CC[C@@H](Cn1c(C)cc2cc(Cl)ccc21)NS(=O)(=O)c1c(C)cc(C)cc1C` [N—[(S)-1-(5-Chloro-2-methylindol-1-ylmethyl)propyl]-2,4,6-trimethylbenzenesulfonamide], the IC50 was at most 100 nM. Take `Cc1ccc2c(c1)CCCN2CC(NS(=O)(=O)c1c(Cl)cc(Cl)cc1Cl)C(C)C` (stereo not shown) [2,4,6-Trichloro-N-[2-methyl-1-(6-methyl-3,4-dihydro-2H-quinolin-1-ylmethyl)propyl]benzenesulfonamide]: the IC50 was at most 100 nM.
